Here are results for five compounds from paper PMC11823679, “Protamine protects against vancomycin-induced kidney injury” (Antimicrobial Agents and Chemotherapy, 2025).

In one series the test system is megalin. Details: method as in Hori et al. ([18]). The following applies: quartz crystal microbalance analysis, ref Hori et al. ([18]), cited from earlier work. An excerpt: Hori et al. ([18]) performed a study to evaluate the binding of megalin to vancomycin and cisplatin, as well as aminoglycosides and colistin. They utilized quartz crystal microbalance analysis to assess the dir ...

The next series concerns Urinary KIM-1. Description: Urinary KIM-1 kidney injury in rats given vancomycin and/or protamine. To be noted: for Contrast KIM-1: urinary KIM-1, vancomycin 150 mg/kg i.v., protamine sulfate 1.5 mg/kg i.v. The protocol:
Male Sprague-Dawley rats (n = 19; age 8–10 weeks; 268–304 g; Envigo, Indianapolis, IN, USA) underwent double jugular catheterization ([33]) (Fig. 3A). Surgery was performed under ketamine (100 mg/kg of body weight) and xyalzine (10 mg/kg of body weight) anesthesia with buprenorphine (0.02 mg/kg of body weight) given post-operatively for pain management. Animals were allowed to recover 4 days before the administration of any drug. Animals were housed in metabolic cages starting 1 day prior to day 0 with access to food and water ad libitum for the duration of the study (Fig. 3B).
Animals were divided into three experimental treatment protocols. Using a dedicated jugular vein for dosing, the animals received clinical grade intravenous protamine and/or vancomycin in doses allometrically scaled to humans according to the following protocols: (i) protamine sulfate (1.5 mg/kg of body weight) and vancomycin (150 mg/kg of body weight) (n = 6); (ii) protamine only (1.5 mg/kg of body weight) with saline sham (sham for volume of vancomycin) (n = 7); or (iii) vancomycin only (150 mg/kg of body weight) with saline sham (sham for volume of protamine) (n = 6) ([34][–][36]). Saline sham was given to match the volumes of protamine and vancomycin doses to maintain euvolemia. On day 0, all animals received only iohexol (51.8 mg/day) intravenously to establish baseline GFR measurements. Drugs were administered as described above by treatment protocols to all groups on days 1–4. Infusion times for each of the drugs include (i) protamine sulfate, 5 minutes; (ii) vancomycin and iohexol, 2 minutes; and (iii) saline sham, 5 or 2 minutes depending on what the sham was replacing.
Urine samples were collected daily, and volumes were measured starting from day 0 to day 4. Samples were centrifuged at 500 g for 10 minutes, and the resulting supernatant was aliquoted (1.5 mL) and stored at −80°C for renal biomarker analysis later.
Urinary samples were analyzed for KIM-1 using the Milliplex MAP Rat Kidney Toxicity Magnetic Bead Panel 1 (EMD Millipore Corporation, Charles, MO, USA) according to the manufacturer’s directions and as previously described ([34], [36], [37]). Briefly, neat urine aliquots were mixed with monoclonal antibody-coated magnetic microbeads (Bead Panel 1) and run on a 96-well plate, which also included a standard curve. Biomarker data were acquired, and concentrations were analyzed using Belysa Immunoassay Curve-Fitting Software V1 (MilliporeSigma, Darmstadt, Germany). The amount of urinary KIM-1 excreted over the 24-h collection period was obtained by multiplying the urinary concentration by 24-h urinary volume.
An omnibus test, i.e., joint tests (multi-degree of freedom) of the interaction and main effects, which is similar to the F test in ANOVA, was used initially (STATA 17.0 BE, StataCorp LLC, College Station, TX, USA). Only models with significant interaction at P < 0.05 were selected for post hoc analysis (i.e., identification of the difference between treatment groups and days). Margins were calculated for a full factorial of the variables, i.e., main effects for each variable and interactions. Referent groups were pre-treatment baseline values and protamine alone as a treatment, except where noted. […] LOWESS graphs were produced in R version 4.2.2 using ggplot2. […] All tests were two-tailed; a P < 0.05 was required for statistical significance. Graphs for cellular studies were generated using GraphPad version 9.3.1 and were fit with a log(inhibitor) vs normalized response function after log transformation.

The next series relates to acute kidney injury. The following applies: cited from earlier work. An excerpt:
Vancomycin is one of the most widely used antibiotics within United States in-patient healthcare systems, accounting for 11.9% of all antibiotic use for inpatient antimicrobials (1,258 out of 10,612) in a 2015 hospital survey ([1]). As a tricyclic glycopeptide, it is primarily indicated for severe Gram-positive bacterial infections, including methicillin-resistant Staphylococcus aureus (MRSA) ([2]). For about 70 years now, vancomycin has remained a first-line antibiotic widely used and studied across people of all ages. Despite its efficacy in the treatment of MRSA infections, one common limit ... || In humans, VAN (creatinine defined) ([41]) occurs between an interquartile range of 6–13 days ([42]), and creatinine is known to lag behind GFR ([43]). Serum creatinine is the most commonly utilized biomarker to classify AKI in patients ([41], [44][–][46]); however, creatinine is non-sensitive, non-specific, and slowly reactive to kidney function as compared to GFR ([47]). GFR can drop 50% before changes in SCr are detected ([48][–][50]). As such, acute injuries from vancomycin take a median of 6 days to be detectable with creatinine alone ([51]). Therefore, this study focused on the pre-clini ... || Originally derived from salmon fish sperm (salmine), protamine is a highly positively charged protein consisting of 32 amino acids. Currently, it is widely used as an effective agent to neutralize heparin using electrostatic bonds made between the cationic arginine groups of protamine and the anionic heparin in a 1:1 ratio ([6]). Specifically, protamine shares binding sites with heparin (current target for FDA-approved use) and megalin ([30], [31]). On this note, a clinical limitation for the use of protamine arises for patients who require heparin infusions, such as post-diabetic foot infecti ...

Setting [1] is: within group, day 2 vs 1 (baseline).
Setting [2] is: within group, day 3 vs 1 (baseline).
Where [3] appears, read: within group, day 4 vs 1 (baseline).

Consider `CC1(C)C[C@@H]1C(=O)N/C(=C\CCCCSC[C@H](N)C(=O)O)C(=O)O` [cilastatin], for which the “Competition of drug binding to megalin (in words)” value with megalin (binding of gentamicin, colistin, vancomycin and cisplatin) is reported as “the binding of all the drugs listed above is competed by cilastatin”.

On to `N.N.[Cl][Pt][Cl]` [cisplatin], for which the “Direct binding to megalin (in words)” value in the series on megalin is “megalin is bound specifically”.

In the case of colistin, in the series on megalin, the “Direct binding to megalin (in words)” value is “megalin is bound specifically”.

Consider `CN[C@H](CC(C)C)C(=O)N[C@H]1C(=O)N[C@@H](CC(N)=O)C(=O)N[C@H]2C(=O)N[C@H]3C(=O)N[C@H](C(=O)N[C@H](C(=O)O)c4cc(O)cc(O)c4-c4cc3ccc4O)[C@H](O)c3ccc(c(Cl)c3)Oc3cc2cc(c3O[C@@H]2O[C@H](CO)[C@@H](O)[C@H](O)[C@H]2O[C@H]2C[C@](C)(N)[C@H](O)[C@H](C)O2)Oc2ccc(cc2Cl)[C@H]1O` [Vancomycin], for which the “KIM-1 compared to protamine alone (in words)” value in the series with Urinary KIM-1 (day 2, 24 h after drug administration) is listed as “significantly increased urinary KIM-1”. Moreover, the “KIM-1 change from baseline of day 1 (in words)” value in the series with Urinary KIM-1 (each animal group compared to itself, 4 days) is “elevated KIM-1 on days 2 and 3”. The “Contrast KIM-1” value was 0.72 ng/24 h in the series on Urinary KIM-1 (vs protamine alone, day 1 (prior to any drug), n = 6-7); 24.92 ng/24 h in the series on Urinary KIM-1 (vs protamine alone, day 2 (24 h after drug administration)); 24.9 ng/24 h in the series with Urinary KIM-1 (vs protamine alone, day 2 (24 h after drug administration), listed as vancomycin); 20.88 ng/24 h with Urinary KIM-1 (vs protamine alone, day 3); 9.00 ng/24 h with Urinary KIM-1 (vs protamine alone, day 4); 24.81 ng/24 h with Urinary KIM-1 (setting [1]). In addition, the “Contrast KIM-1” value worked out at 20.50 ng/24 h in the series on Urinary KIM-1 (setting [2]) and 8.55 ng/24 h with Urinary KIM-1 (setting [3]). Further, the “95% confidence interval of contrast KIM-1” value in the series on Urinary KIM-1 (vs protamine alone, day 1) is on record as “(−22.3–23.8) ng/24 h”; in the series with Urinary KIM-1 (vs protamine alone, day 2) it was “(1.9–48.0) ng/24 h”; with Urinary KIM-1 (vs protamine alone, day 2, listed as vancomycin) it was 1.87–48.0 ng/24 h; in the series on Urinary KIM-1 (vs protamine alone, day 3), “(−2.2–43.9) ng/24 h”; with Urinary KIM-1 (vs protamine alone, day 4), “(−14.0–32.0) ng/24 h”; in the series with Urinary KIM-1 (setting [1]), “(5.2–44.4) ng/24 h”. Moreover, the “95% confidence interval of contrast KIM-1” value in the series on Urinary KIM-1 (setting [2]) is reported as “(0.9–40.1) ng/24 h”; with Urinary KIM-1 (setting [3]), “(−11–28.1) ng/24 h”. In the series on megalin, the “Direct binding to megalin (in words)” value is “megalin is bound specifically”. Besides, the “Time to VAN (creatinine defined), interquartile range” value in the series on acute kidney injury (humans, after treatment initiation) was 6 to 13 days. The “Median time for acute injury to be detectable with creatinine alone” value with acute kidney injury (humans) is listed as 6 days. The “Risk of AKI compared to other antibiotics” value with acute kidney injury (systematic review and meta-analysis) is “up to 2.5 times greater”.

Consider `CNC(C)C1CCC(N)C(OC2C(N)CC(N)C(OC3OCC(C)(O)C(NC)C3O)C2O)O1` (centres unmarked) [gentamicin], for which the “Direct binding to megalin (in words)” value with megalin is recorded as “megalin is bound specifically”.
